Assay results as given in patent publication US20250388575A1, “HETEROBIFUNCTIONAL COMPOUNDS AND METHODS OF TREATING DISEASE” (Halda Therapeutics OpCo, Inc., priority 2022, published 2025).
Like-named read-outs stand apart in the source and are kept apart here.

Key:
T47D cells = experiment: Cellular growth inhibition assay for T47D cells, CellTiter-Glo; type: cell-based, human; details: 72 hours treatment, CellTiter-Glo 2.0
Procedure: T47D cells were purchased from American Type Cell Culture (ATCC Cat #HTB-133) and then seeded on poly-D-lysine coated, black clear-bottom 384-well plates at 3000/well in 25 μL Dulbecco's Modified Eagle Medium (DMEM) supplemented with 10% w/w Fetal bovine serum (FBS), 0.2 units/mL recombinant human insulin (Gibco Cat #12585014), and 1% w/w Pen-Strep. Pen-Strep is a commercially available mixture of penicillin G and streptomycin, which is used in mammalian cell culture media to prevent bacterial contamination. Dulbecco's Modified Eagle Medium (DMEM) supplemented with 10% w/w fetal bovine serum (FBS), 0.2 units/mL recombinant human insulin, and 1% w/w Pen-Strep is herein referred to as Treatment Medium. Following seeding of cells in the plates, the plates were spun at 300×g for 30 seconds, then equilibrated to room temperature for 30 minutes, and then deposited in a humidified tissue culture incubator maintained at 37° C. with 5% CO2.
At 24 hours after seeding of the cells, dilutions of test compound were prepared in DMSO and dissolved in Treatment Medium, to achieve a final DMSO concentration of 0.5% w/w, thereby providing the Test Compound Solution. A 25 μL aliquot of the Test Compound Solution was added to cells in the well plates. An equal volume of a solution containing DMSO and Treatment Medium was used as a negative control. Following treatment of cells with Test Compound Solution or said equal volume of a solution containing DMSO and Treatment Medium, the plates were spun at 300×g for 30 seconds, and then left in an incubator for 72 hours.
At the end of the treatment duration, cell viability was quantified with CellTiter-Glo 2.0 reagent (Promega Cat #G9243). For this purpose, plates were equilibrated to room temperature for 30 minutes, and then 25 μL of CellTiter-Glo 2.0 reagent was added to cells in the plate wells. Plates were then agitated on a shaker for two minutes at 500 rpm and subsequently incubated at room temperature for 10 minutes. Following incubation, the plates were spun at 3000×g for 30 seconds, then sealed with an optical adhesive cover, and luminescence readings were measured with an EnVision Plate Reader (Perkin Elmer).
Data was normalized using zero luminescence for baseline. A four-parameter non-linear regression curve fit was applied to dose-response data in GraphPad Prism data analysis software to determine the half-maximal growth inhibitory concentration (GI50) for each test compound.

[1] = system: T-Rex 293 cell line SC3 cells having increased expression of androgen receptor protein; experiment: Cellular growth inhibition, T-Rex 293 SC3 cells with increased androgen receptor expression (doxycycline), CellTiter-Glo; type: cell-based; details: T-Rex 293 SC3 cells with increased androgen receptor expression (exposed to 10 ng/mL doxycycline), 72 hours, CellTiter-Glo; read-out: GI50
Outline: (§1)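 SC3, a T-Rex 293 clone with doxycycline-inducible wild-type androgen receptor, was seeded in phenol red-free DMEM with 10% charcoal-dextran FBS, with or without 10 ng/mL doxycycline. Compound added at 24 h (0.5% DMSO) for 72 h at 37° C. CellTiter-Glo 2.0 luminescence; GI50 from four-parameter fit.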

[2] = system: T-Rex 293 cell line SC3 cells lacking increased expression of androgen receptor protein; experiment: Cellular growth inhibition, T-Rex 293 SC3 cells lacking increased androgen receptor expression (no doxycycline), CellTiter-Glo; type: cell-based; details: T-Rex 293 SC3 cells lacking increased androgen receptor expression (not exposed to doxycycline), 72 hours, CellTiter-Glo; read-out: GI50
Outline: as §1

VCaP cells = experiment: Cellular growth inhibition assay for VCaP cells, CellTiter-Glo; type: cell-based, human; details: VCaP cells, 72 hours, CellTiter-Glo, read-out: GI50
Outline: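 GI50 values come from four-parameter curve fits of luminescence data normalized to a zero baseline. Compound, in medium with 0.5% DMSO, was added one day after plating and left for 72 h before CellTiter-Glo 2.0 addition.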

Row | SMILES | GI50 (T47D cells) [nM] | GI50 (VCaP cells) [nM] | GI50 (T47D cells; Homo sapiens) [nM] | GI50 (VCaP cells; Homo sapiens) [nM] | GI50 [1] [nM] | GI50 [2] [nM]
1 | Cn1cc(-c2cc(C(C)(C)O)ccc2Oc2ccc(CCCCC3CN(c4ccc(C(=O)N[C@H]5CC[C@H](Oc6ccc(C#N)c(Cl)c6)CC5)nn4)C3)cc2)c2cc[nH]c2c1=O [I-133] | < 500 | < 500 |  |  | < 500 | 500 to 1500
2 | Cn1cc(-c2cc(C(C)(C)O)ccc2Oc2ccc(CCCC3C4CN(c5ccc(C(=O)N[C@H]6CC[C@H](Oc7ccc(C#N)c(Cl)c7)CC6)nn5)CC34)cc2)c2cc[nH]c2c1=O (some centres unmarked) [I-128] | < 500 | < 500 |  |  | < 500 | < 500
3 | Cn1cc(-c2cc(C(C)(C)O)ccc2Oc2ccc(N3CC(OC4CN(c5ccc(C(=O)N[C@H]6CC[C@H](Oc7ccc(C#N)c(Cl)c7)CC6)nn5)C4)C3)cc2)c2cc[nH]c2c1=O [I-150] |  |  | < 500 | < 500 | < 500 | < 500
4 | Cn1cc(-c2cc(C(C)(C)O)ccc2Oc2ccc(N3CC(CC4CCN(c5ccc(C(=O)N[C@H]6CC[C@H](Oc7ccc(C#N)c(Cl)c7)CC6)nn5)CC4)C3)cc2)c2cc[nH]c2c1=O [I-147] |  |  | < 500 | < 500 | < 500 | > 3000
5 | CCS(=O)(=O)c1ccc(Oc2ccc(CCC3CCN(c4ccc(C(=O)N[C@H]5CC[C@H](Oc6ccc(C#N)c(Cl)c6)CC5)nn4)CC3)c(Cl)c2)c(-c2cn(C)c(=O)c3[nH]ccc23)c1 [I-84] | < 500 | < 500 |  |  | < 500 | > 3000
6 | CCS(=O)(=O)Nc1ccc(Oc2cccc(CCC3CCN(c4ccc(C(=O)N[C@H]5CC[C@H](Oc6ccc(C#N)c(Cl)c6)CC5)nn4)CC3)c2F)c(-c2cn(C)c(=O)c3[nH]ccc23)c1 [I-21] |  |  | < 500 | < 500 | < 500 | > 3000
7 | Cn1cc(-c2cc(C(C)(C)O)ccc2Oc2ccc(CCCC3CCN(c4ccc(C(=O)N[C@H]5CC[C@H](Oc6ccc(C#N)c(Cl)c6)CC5)nn4)C3)cc2)c2cc[nH]c2c1=O (some centres unmarked) [I-135] |  |  | < 500 | < 500 | < 500 | < 500
8 | Cn1cc(-c2cc(C(C)(C)O)ccc2Oc2ccc(N3CC(CC4CN(c5ccc(C(=O)N[C@H]6CC[C@H](Oc7ccc(C#N)c(Cl)c7)CC6)nn5)C4)C3)cc2)c2cc[nH]c2c1=O [I-149] |  |  | < 500 | < 500 | < 500 | < 500
9 | CCS(=O)(=O)c1ccc(Oc2ccc(CCC3CN(c4ccc(C(=O)N[C@H]5CC[C@H](Oc6ccc(C#N)c(Cl)c6)CC5)nn4)C3)cc2)c(-c2cn(C)c(=O)c3[nH]ccc23)c1 [I-72] | < 500 | < 500 |  |  | < 500 | < 500
10 | CCS(=O)(=O)c1ccc(Oc2ccc(C3CC4(CCN(c5ccc(C(=O)N[C@H]6CC[C@H](Oc7ccc(C#N)c(Cl)c7)CC6)nn5)CC4)C3)cc2)c(-c2cn(C)c(=O)c3[nH]ccc23)c1 [I-60] | < 500 | < 500 |  |  | < 500 | < 500
11 | Cn1cc(-c2cc(C(C)(C)O)ccc2Oc2ccc(CCC3CN(c4ccc(C(=O)N[C@H]5CC[C@H](Oc6ccc(C#N)c(Cl)c6)CC5)nn4)C3)cc2)c2cc[nH]c2c1=O [I-129] | < 500 | < 500 |  |  | < 500 | < 500
12 | CCS(=O)(=O)c1ccc(Oc2ccc(CCCC3C4CN(c5ccc(C(=O)N[C@H]6CC[C@H](Oc7ccc(C#N)c(Cl)c7)CC6)nn5)CC34)cc2)c(-c2cn(C)c(=O)c3[nH]ccc23)c1 (some centres unmarked) [I-71] |  |  | < 500 | < 500 | < 500 | < 500
13 | Cn1cc(-c2cc(C(C)(C)O)ccc2CN2CC(CC3CCN(c4ccc(C(=O)NC5CCC(Oc6ccc(C#N)c(Cl)c6)CC5)nn4)CC3)C2)c2cc[nH]c2c1=O (centres unmarked) [I-248, N-[4-(3-chloro-4-cyano-phenoxy)cyclohexyl]-6-[4-[[1-[[4-(1-hydroxy-1-methyl-ethyl)-2-(6-methyl-7-oxo-1H-pyrrolo[2,3-c]pyridin-4-yl)phenyl]methyl]azetidin-3-yl]methyl]-1-piperidyl]pyridazine-3-carboxamide] |  |  | 500 to 1500 | > 3000 | 500 to 1500 | 1500 to 3000
14 | CCS(=O)(=O)c1ccc(Oc2ccc(CCC3CCN(c4ccc(C(=O)N[C@H]5CC[C@H](Oc6ccc(C#N)c(Cl)c6)CC5)nn4)CC3)c(C#N)c2)c(-c2cn(C)c(=O)c3[nH]ccc23)c1 [I-79] | 500 to 1500 | < 500 |  |  | < 500 | > 3000
15 | CCS(=O)(=O)c1ccc(Oc2ccc(C(C)(C)N3CC4(CN(c5ccc(C(=O)N[C@H]6CC[C@H](Oc7ccc(C#N)c(Cl)c7)CC6)nn5)C4)C3)cc2)c(-c2cn(C)c(=O)c3[nH]ccc23)c1 [I-88] |  |  | < 500 | < 500 | < 500 | < 500
16 | CN(C1CN(c2ccc(Oc3ccc(C(C)(C)O)cc3-c3cn(C)c(=O)c4[nH]ccc34)cc2)C1)C1CN(c2ccc(C(=O)N[C@H]3CC[C@H](Oc4ccc(C#N)c(Cl)c4)CC3)nn2)C1 [I-143] | < 500 | < 500 |  |  | < 500 | > 3000
17 | Cn1cc(-c2cc(C(C)(C)O)ccc2Oc2ccc(CCCC3CCN(c4ccc(C(=O)N[C@H]5CC[C@H](Oc6ccc(C#N)c(Cl)c6)CC5)nn4)CC3)cc2)c2cc[nH]c2c1=O [I-124] |  |  | < 500 | < 500 |  | 

Further lines, with some results ahead:

Row | GI50 (T47D cells) [nM] | GI50 (VCaP cells) [nM] | GI50 (T47D cells; Homo sapiens) [nM] | GI50 (VCaP cells; Homo sapiens) [nM] | SMILES | GI50 [1] [nM] | GI50 [2] [nM]
18 | < 500 | < 500 |  |  | CCS(=O)(=O)c1ccc(Oc2ccc(CCC3CCN(c4ccc(C(=O)N[C@H]5CC[C@H](Oc6ccc(C#N)c(Cl)c6)CC5)nn4)CC3)nn2)c(-c2cn(C)c(=O)c3[nH]ccc23)c1 [I-221] | < 500 | < 500
19 | < 500 | < 500 |  |  | CN(CCCCc1ccc(Oc2ccc(C(C)(C)O)cc2-c2cn(C)c(=O)c3[nH]ccc23)cc1)c1ccc(C(=O)N[C@H]2CC[C@H](Oc3ccc(C#N)c(Cl)c3)CC2)nn1 [I-122] |  | 
20 | 1500 to 3000 | < 500 |  |  | CN(CCCc1ccc(Oc2ccc(C(C)(C)O)cc2-c2cn(C)c(=O)c3[nH]ccc23)cc1)c1ccc(C(=O)N[C@H]2CC[C@H](Oc3ccc(C#N)c(Cl)c3)CC2)nn1 [I-105] | < 500 | < 500
21 | < 500 | < 500 |  |  | Cn1cc(-c2cc(C(C)(C)O)ccc2Oc2c(F)cc(CCC3CCN(c4ccc(C(=O)N[C@H]5CC[C@H](Oc6ccc(C#N)c(Cl)c6)CC5)nn4)CC3)cc2F)c2cc[nH]c2c1=O [I-115] | < 500 | > 3000
22 |  |  | < 500 | < 500 | CCS(=O)(=O)Nc1ccc(Oc2cccc(N3CC(N4CCN(c5ccc(C(=O)N[C@H]6CC[C@H](Oc7ccc(C#N)c(Cl)c7)CC6)nn5)CC4)C3)c2F)c(-c2cn(C)c(=O)c3[nH]ccc23)c1 [I-12] | < 500 | > 3000
23 | < 500 | < 500 |  |  | CCS(=O)(=O)c1ccc(OC2CC(OC3CC4(CCN(c5ccc(C(=O)N[C@H]6CC[C@H](Oc7ccc(C#N)c(Cl)c7)CC6)nn5)CC4)C3)C2)c(-c2cn(C)c(=O)c3[nH]ccc23)c1 (some centres unmarked) [I-229] | < 500 | < 500
24 | < 500 | < 500 |  |  | Cn1cc(-c2cc(S(=O)(=O)C3CC3)ccc2Oc2ccc(CCC3CCN(c4ccc(C(=O)N[C@H]5CC[C@H](Oc6ccc(C#N)c(Cl)c6)CC5)nn4)CC3)cc2)c2cc[nH]c2c1=O [I-76] | < 500 | < 500
25 |  |  |  | < 500 | Cn1cc(-c2cc(NS(=O)(=O)CC(F)(F)F)ccc2Oc2cccc(OCCOC3CCN(c4ccc(C(=O)N[C@H]5CC[C@H](Oc6ccc(C#N)c(Cl)c6)CC5)nn4)CC3)c2F)c2cc[nH]c2c1=O [I-17] | < 500 | < 500
